Laboratory results from patent US4101662A, “Method for inhibiting emesis and compositions therefor” (priority 1973, dated 1978).
Where a name gives a salt, the structure may show the parent alone. Read-outs that look alike come from different tables or passages of the source.

Test system: emetic effect of apomorphine
Assay: Antiemetic activity (IM) against apomorphine-induced emesis in unanesthetized dogs, ED50
Assay type: in vivo
Conditions: for ED50: Canis lupus familiaris
Procedure: Description of this invention will therefore be made with especial emphasis on 4-(p-fluorobenzoyl)-1-[3-(p-fluorobenzoyl)propyl]piperidine hydrochloride, it being understood that the principles and practices involved are applicable to the other compounds of the formula first hereinabove set forth. The antiemetic activity of the compounds was determined by the following standard pharmacological tests.
The compounds were administered intramuscularly (IM) to unanesthetized dogs in the caudal muscles (left hind leg) and thirty minutes later they received apomorphine hydrochloride (0.1 mg./kg. s.c.). The compounds were administered in micrograms (mcg.) at several dose levels and the percent reduction in frequency of emesis relative to controls determined. From the data the ED50 in micrograms was determined.

[1] = IM, unanesthetized dogs, 30 minutes before apomorphine hydrochloride 0.1 mg/kg s.c., reduction in frequency of emesis relative to controls, read-out: ED50 and 95% Confidence Limits

SMILES	ED50 [1]	also measured
OC(CCCN1CCC(C(O)c2ccc(F)cc2)CC1)c1ccc(F)cc1 (stereo not drawn) [Example 10, 4-(p-Fluoro-α-hydroxybenzyl)-1-[3-(p-fluoro-α-hydroxy)propyl]piperidine]	–	ED50 (IM, unanesthetized dogs, 30 minutes before apomorphine hydrochloride 0.1 mg/kg s.c., footnote b: graphic estimate, vehicle 80% polyethylene glycol 300 and 20% water, read-out: ED50 (value obtained from a graphic estimate)): ~1 mg/kg
O=C(CCCN1CCC(C(O)c2ccc(F)cc2)CC1)c1ccc(F)cc1 (stereo not drawn) [Example 9, 4-(p-Fluoro-α-hydroxybenzyl)-1-[3-(p-fluorobenzoyl)propyl]piperidine]	–	ED50 (im, read-out: ED50 and 95% Confidence Limits): 0.132 mg/kg
O=C(CCCN1CCC(C(=O)c2ccc(Cl)cc2)CC1)c1ccc(Cl)cc1 [Example 4, 4-(p-chlorobenzoyl)-1-[3-(p-chlorobenzoyl)propyl]piperidine Hydrochloride]	–	ED50 and 95% Confidence Limits (Estimated Values) (IM, unanesthetized dogs, 30 minutes before apomorphine hydrochloride 0.1 mg/kg s.c., footnote a: estimated values): ~1401.0 (796-2468) mcg/kg
O=C(CCCN1CCC(C(=O)c2ccc(F)cc2)CC1)c1ccc(F)cc1 [Example 1, 4-(p-Fluorobenzoyl)-1-[3-(p-fluorobenzoyl)propyl]piperidine Hydrochloride]	0.0083 mg/kg	–
O=C(CCCN1CCC(C(=O)c2ccc(F)cc2)CC1)c1ccc(Cl)cc1 [Example 2, 4-(p-Fluorobenzoyl)-1-[3-(p-chlorobenzoyl)propyl]piperidine Hydrochloride]	0.06 mg/kg	–
O=C(CCCN1CCC(C(=O)c2ccc(Cl)cc2)CC1)c1ccc(F)cc1 [Example 3, 4-(p-Chlorobenzoyl)-1-[3-(p-fluorobenzoyl)propyl]piperidine Hydrochloride]	0.077 mg/kg	–
